Data: patent publication US7033997B2, “Use of natriuretic peptides as antibiotically active substances for the treatment of bacterial infections” (Pharis Biotec GmbH, priority 1999, dated 2006)

Legend:
Format in all cases: cell-based
Streptococcus carnosus = assay: Radial diffusion growth inhibition test according to Lehrer et al.; conditions: for growth-inhibiting effect: Gram-positive bacteria
From the text: (§1) The peptides to which this invention relates are members of the family of natriuretic peptides. […] The form of ANP which occurs in the kidneys, urodilatin, was first isolated in 1988 by Forssmann et al. (Schulz-Knappe et al., 1988). […] A useful test for recognizing antibiotic activity is the growth inhibition test of Lehrer et al. (Lehrer et al. J. Immun. Methods, Vol. 137, p. 167, 1991).
(§2) Radial diffusion growth inhibition test with Streptococcus carnosus and N. cinerea according to Lehrer et al. (Lehrer et al., J. Immun. Methods, Vol. 137, p. 167, 1991).
(§3) The purity and identity of the peptides is determined by mass spectrometry (quadrupole electrospray mass spectrometry, Sciex API 111, Perkin Elmer) and sequencing in a gas-phase sequencer (model 470, Applied Biosystems, Weiter-stadt) and checked by capillary zone electrophoresis. The biological activity is verified by the growth inhibition test.

N. cinerea = assay: as above; conditions: for growth-inhibiting effect: Gram-negative bacteria
From the text: as §1, §2, §3

B. subtilis = assay: Growth inhibition test; conditions: Gram-positive bacteria
Experimental: as §1, §3

E. coli = assay: Growth inhibition test; conditions: Gram-negative bacteria
Experimental: as §1, §3

M. luteus = assay: Growth inhibition test; conditions: Gram-positive bacteria
Experimental: as §1, §3

S. cerevisiae = assay: Growth inhibition test; conditions: yeast S. cerevisiae
Experimental: as §1, §3

P. fluorescens = assay: Growth inhibition test; conditions: Gram-negative bacteria
Experimental: as §1, §3

[1] = after application of 1 μg, Streptococcus carnosus

Compound	inhibition halos (Streptococcus carnosus; after application of 7 μg, S. carnosus)	inhibition halos (N. cinerea; after application of 11 μg)	growth-inhibiting effect (B. subtilis)	growth-inhibiting effect (E. coli)	growth-inhibiting effect (M. luteus)	growth-inhibiting effect (S. cerevisiae)	growth-inhibiting effect (P. fluorescens)	growth-inhibiting effect (Streptococcus carnosus; S. carnosus)	inhibition halos (Streptococcus carnosus; [1])	growth-inhibiting effect (N. cinerea)	inhibition halos (N. cinerea; after application of 1 μg)
Gly-Leu-Ser-Lys-Gly-Cys-Phe-Gly-Leu-Lys-Leu-Asp-Arg-Ile-Gly-Ser-Met-Ser-Gly-Leu-Gly-Cys (GLSKGCFGLKLDRIGSMSGLGC; listed as Homo sapiens) [CNP]	inhibition halos can be observed	inhibition halos can be observed									
Thr-Ala-Pro-Arg-Ser-Leu-Arg-Arg-Ser-Ser-Cys-Phe-Gly-Gly-Arg-Met-Asp-Arg-Jle-Gly-Ala-Gln-Ser-Gly-Leu-Gly-Cys-Asn-Ser-Phe-Arg-Tyr [urodilatin]			growth-inhibiting effect	growth-inhibiting effect	growth-inhibiting effect	growth-inhibiting effect	growth-inhibiting effect	growth-inhibiting effect	inhibition halos can be observed	growth-inhibiting effect	inhibition halos can be observed
CC[C@H](C)[C@@H]1NC(=O)[C@H](CCCNC(=N)N)NC(=O)[C@H](CC(=O)O)NC(=O)[C@H](CCSC)NC(=O)[C@H](CCCNC(=N)N)NC(=O)CNC(=O)CNC(=O)[C@H](Cc2ccccc2)NC(=O)[C@@H](NC(=O)[C@H](CO)NC(=O)[C@H](CO)NC(=O)[C@H](CCCNC(=N)N)NC(=O)[C@H](CCCNC(=N)N)NC(=O)[C@H](CC(C)C)NC(=O)[C@@H](N)CO)CSSC[C@@H](C(=O)N[C@@H](CC(N)=O)C(=O)N[C@@H](CO)C(=O)N[C@@H](Cc2ccccc2)C(=O)N[C@@H](CCCNC(=N)N)C(=O)N[C@@H](Cc2ccc(O)cc2)C(=O)O)NC(=O)CNC(=O)[C@H](CC(C)C)NC(=O)CNC(=O)[C@H](CO)NC(=O)[C@H](CCC(N)=O)NC(=O)[C@H](C)NC(=O)CNC1=O [ANP]			growth-inhibiting effect	growth-inhibiting effect	growth-inhibiting effect	growth-inhibiting effect	growth-inhibiting effect	growth-inhibiting effect	inhibition halos can be observed	growth-inhibiting effect	inhibition halos can be observed
